Usually IC50 stands for the concentration needed to halve the response being measured.

SMILES strings stand for the structures.

Our source for the IC50 and inhibition values is patent publication US9688654B2, “Compounds inhibiting leucine-rich repeat kinase enzyme activity” (Merck Sharp & Dohme Corp., priority 2013, dated 2017).

Type in all cases: biochemical
For assay [1], the target named is T1, LRRK2 (G2019S mutation, GST-LRRK2 (amino acids 970-2527)) (Homo sapiens, UniProt Q5S007, G2019S).
T1 construct: GST-LRRK2 (amino acids 970-2527); GST (N); purchased Life Technologies Corporation
Put plainly: LRRK2 Km ATP LanthaScreen Assay. Conditions: mean IC50. The method, then: Unless otherwise noted, all LRRK2 IC50 data presented in tables refers to the LRRK2 Km ATP LanthaScreen™ Assay that is described in the Biological Assay section.
The data presented for the 5 mM and Km ATP LanthaScreen™ Assay represents mean IC50 values based on several test results and may have reasonable. deviations depending on the specific conditions and reagents used. Reagents for the LRRK2 5 mM and Km ATP LanthaScreen™ Assay were purchased from Life Technologies Corporation.
• a) 400 nl of a 1:2.15 serial dilution of test compound (98 μM top assay concentration) is spotted via Labcyte Echo to certain wells in a 384 well black, untreated plate. Control wells contain 400 nl of either DMSO or 400 nl of a known inhibitor in DMSO. • b) 10 μl of a 2.5 nM LRRK2 (G2019S mutation, GST-LRRK2 (amino acids 970-2527)) enzyme solution in 1× assay buffer (50 mM Tris pH 8.5, 10 mM MgCl2, 0.01% Brij-35, 1.0 mM EGTA, 2 mM DTT, 0.05 mM NaVO4) is added to all wells. • c) A 30 minute room temperature incubation is followed by addition of 10 μl […]) After a 35 minute room temperature incubation, 20 μl of TR-FRET Dilution Buffer (Invitrogen PV3756B) containing 4 nM Tb-labeled anti-phospho LRRKtide antibody and 20 mM EDTA is added to all wells. • e) Plates are incubated at room temperature for 1 hour and read on an Envision™ multi-mode plate reader with LanthaScreen™ settings. Results are analysed using Assay Data Analyzer. […] Results are analysed using Assay Data Analyzer.
On the technique in general: In TR-FRET formats the signal depends on donor and acceptor labels being close together.

The next assay addresses T2, AURKB (Aurora B) (Homo sapiens, UniProt Q96GD4).
T2 construct: purchased Life Technologies Corporation
Nature of the assay: Kinase selectivity, Z'-LYTE platform. The conditions noted are these: 1 micromolar compound, read-out: percent inhibition AURKB (Aurora B).

For another assay, the target named is T3, BRAF V599E (Homo sapiens, UniProt P15056, V600E).
T3 construct: purchased Life Technologies Corporation
T3 sequence (P15056 whole entry V600E): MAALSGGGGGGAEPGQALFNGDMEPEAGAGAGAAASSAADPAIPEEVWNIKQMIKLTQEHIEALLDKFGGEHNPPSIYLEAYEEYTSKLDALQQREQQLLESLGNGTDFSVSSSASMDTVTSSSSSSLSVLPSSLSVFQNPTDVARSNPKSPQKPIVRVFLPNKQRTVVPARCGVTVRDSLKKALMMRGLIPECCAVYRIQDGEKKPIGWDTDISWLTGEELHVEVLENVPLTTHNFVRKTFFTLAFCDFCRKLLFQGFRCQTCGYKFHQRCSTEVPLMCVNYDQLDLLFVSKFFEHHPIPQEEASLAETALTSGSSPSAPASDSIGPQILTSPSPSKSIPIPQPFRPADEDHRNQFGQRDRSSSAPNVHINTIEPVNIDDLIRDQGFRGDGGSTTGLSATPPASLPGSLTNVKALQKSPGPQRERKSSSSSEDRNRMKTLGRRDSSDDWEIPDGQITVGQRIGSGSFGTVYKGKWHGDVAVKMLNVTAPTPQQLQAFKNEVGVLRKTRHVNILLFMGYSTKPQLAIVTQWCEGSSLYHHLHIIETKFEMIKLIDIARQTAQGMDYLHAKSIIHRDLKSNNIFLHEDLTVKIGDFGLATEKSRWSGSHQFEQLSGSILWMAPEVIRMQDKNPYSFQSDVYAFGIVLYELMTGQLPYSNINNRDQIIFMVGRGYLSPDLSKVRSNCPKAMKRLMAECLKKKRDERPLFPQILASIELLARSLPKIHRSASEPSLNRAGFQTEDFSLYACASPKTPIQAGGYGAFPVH
Nature of the assay: Kinase selectivity, Z'-LYTE platform. The conditions noted are these: 1 micromolar compound, read-out: percent inhibition BRAF V599E.

The target of a further assay is T4, CDK1/cyclin B (Homo sapiens, UniProt P06493).
T4 construct: purchased Life Technologies Corporation
T4 sequence (P06493 whole entry): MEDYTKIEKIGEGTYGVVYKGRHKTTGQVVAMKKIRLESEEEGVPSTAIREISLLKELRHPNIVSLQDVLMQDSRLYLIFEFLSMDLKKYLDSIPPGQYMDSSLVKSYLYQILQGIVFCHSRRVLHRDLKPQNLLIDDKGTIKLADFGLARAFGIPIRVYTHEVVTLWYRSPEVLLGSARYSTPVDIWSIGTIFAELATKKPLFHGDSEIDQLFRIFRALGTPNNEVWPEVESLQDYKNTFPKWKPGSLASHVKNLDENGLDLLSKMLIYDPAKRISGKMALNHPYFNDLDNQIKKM
T4 sequence (P14635 whole entry partner): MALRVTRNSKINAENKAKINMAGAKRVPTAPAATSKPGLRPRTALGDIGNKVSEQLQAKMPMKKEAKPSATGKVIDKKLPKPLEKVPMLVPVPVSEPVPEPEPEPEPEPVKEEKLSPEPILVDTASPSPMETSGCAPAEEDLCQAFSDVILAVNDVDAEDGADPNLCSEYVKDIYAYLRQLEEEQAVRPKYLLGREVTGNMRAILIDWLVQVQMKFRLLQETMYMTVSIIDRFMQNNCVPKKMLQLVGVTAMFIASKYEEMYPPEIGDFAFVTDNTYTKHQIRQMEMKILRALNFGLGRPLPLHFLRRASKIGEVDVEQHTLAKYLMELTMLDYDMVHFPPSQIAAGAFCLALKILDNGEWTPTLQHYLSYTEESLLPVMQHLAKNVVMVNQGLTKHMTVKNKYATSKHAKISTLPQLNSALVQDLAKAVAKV
Put plainly: Kinase selectivity, Z'-LYTE platform. Conditions: 1 micromolar compound, read-out: percent inhibition CDK1/cyclin B.

For a further assay, the target named is T5, CHEK2 (CHK2) (Homo sapiens, UniProt O96017).
T5 construct: purchased Life Technologies Corporation
T5 sequence (O96017 whole entry): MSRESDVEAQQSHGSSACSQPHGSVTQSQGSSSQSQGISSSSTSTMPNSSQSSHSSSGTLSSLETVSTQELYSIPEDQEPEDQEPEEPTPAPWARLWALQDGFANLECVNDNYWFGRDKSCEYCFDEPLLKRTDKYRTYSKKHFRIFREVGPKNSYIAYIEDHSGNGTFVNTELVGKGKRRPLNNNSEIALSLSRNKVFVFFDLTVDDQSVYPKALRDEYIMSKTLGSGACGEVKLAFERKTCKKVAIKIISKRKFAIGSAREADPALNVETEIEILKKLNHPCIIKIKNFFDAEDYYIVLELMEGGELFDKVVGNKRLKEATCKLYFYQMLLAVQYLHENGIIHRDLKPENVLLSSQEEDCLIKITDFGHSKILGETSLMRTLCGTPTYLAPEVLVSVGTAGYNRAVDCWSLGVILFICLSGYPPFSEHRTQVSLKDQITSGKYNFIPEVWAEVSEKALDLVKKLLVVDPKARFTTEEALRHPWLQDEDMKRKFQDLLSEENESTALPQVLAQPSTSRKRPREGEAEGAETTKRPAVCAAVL
Nature of the assay: Kinase selectivity, Z'-LYTE platform. Conditions: 1 micromolar compound, read-out: percent inhibition CHEK2 (CHK2).

A further assay concerns the target T6, CLK2 (Homo sapiens, UniProt P49760).
T6 construct: purchased Life Technologies Corporation
Put plainly: Kinase selectivity, Z'-LYTE platform. Conditions: 1 micromolar compound, read-out: percent inhibition CLK2.

The target of the next assay is T7, DYRK1A (Homo sapiens, UniProt Q13627).
T7 construct: purchased Life Technologies Corporation
Nature of the assay: Kinase selectivity, Z'-LYTE platform. Conditions: 1 micromolar compound, read-out: percent inhibition DYRK1A.

The next assay addresses T8, IRAK1 (Homo sapiens, UniProt P51617).
T8 construct: purchased Life Technologies Corporation
Put plainly: Kinase selectivity, Adapta platform. Conditions: 1 micromolar compound, read-out: percent inhibition IRAK1.

Another assay has as its target T9, JAK3 (Homo sapiens, UniProt P52333).
T9 construct: purchased Life Technologies Corporation
T9 sequence (P52333 1-1124): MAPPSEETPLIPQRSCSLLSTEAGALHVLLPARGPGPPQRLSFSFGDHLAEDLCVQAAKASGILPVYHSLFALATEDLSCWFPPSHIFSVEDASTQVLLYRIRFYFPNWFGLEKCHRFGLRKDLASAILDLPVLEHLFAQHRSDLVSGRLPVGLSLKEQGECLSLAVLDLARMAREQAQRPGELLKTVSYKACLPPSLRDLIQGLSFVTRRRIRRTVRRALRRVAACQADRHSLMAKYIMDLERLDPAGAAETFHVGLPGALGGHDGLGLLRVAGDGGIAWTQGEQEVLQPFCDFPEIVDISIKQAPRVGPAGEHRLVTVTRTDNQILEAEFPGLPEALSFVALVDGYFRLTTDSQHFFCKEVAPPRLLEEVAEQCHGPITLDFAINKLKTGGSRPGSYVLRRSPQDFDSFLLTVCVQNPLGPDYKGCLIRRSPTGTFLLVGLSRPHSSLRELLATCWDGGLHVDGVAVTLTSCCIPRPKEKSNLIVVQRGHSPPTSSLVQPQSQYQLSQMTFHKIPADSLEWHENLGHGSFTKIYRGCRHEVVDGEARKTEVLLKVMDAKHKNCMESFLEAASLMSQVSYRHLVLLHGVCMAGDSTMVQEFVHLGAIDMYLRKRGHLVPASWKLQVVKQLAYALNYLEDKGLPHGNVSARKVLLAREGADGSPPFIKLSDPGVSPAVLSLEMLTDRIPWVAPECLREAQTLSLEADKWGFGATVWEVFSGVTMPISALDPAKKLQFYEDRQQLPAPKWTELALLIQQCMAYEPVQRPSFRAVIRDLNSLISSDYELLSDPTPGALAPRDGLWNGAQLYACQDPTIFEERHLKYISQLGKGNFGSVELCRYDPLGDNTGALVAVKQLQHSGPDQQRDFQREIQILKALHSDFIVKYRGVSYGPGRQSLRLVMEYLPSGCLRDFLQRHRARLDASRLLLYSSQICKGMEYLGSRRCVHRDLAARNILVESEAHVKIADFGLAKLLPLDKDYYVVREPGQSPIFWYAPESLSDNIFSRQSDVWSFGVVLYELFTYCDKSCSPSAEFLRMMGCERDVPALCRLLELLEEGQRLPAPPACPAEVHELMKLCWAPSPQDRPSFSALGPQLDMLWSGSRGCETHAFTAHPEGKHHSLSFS
Nature of the assay: Kinase selectivity, Z'-LYTE platform. Conditions: 1 micromolar compound, read-out: percent inhibition JAK3.

A further assay has as its target T10, MAPK1 (ERK2) (Homo sapiens, UniProt P28482).
T10 construct: purchased Life Technologies Corporation
Nature of the assay: Kinase selectivity, Z'-LYTE platform. Conditions: 1 micromolar compound, read-out: percent inhibition MAPK1 (ERK2).

For the next assay, the target named is T11, MAPK8 (JNK1) (Homo sapiens, UniProt P45983).
T11 construct: purchased Life Technologies Corporation
T11 sequence (P45983 whole entry): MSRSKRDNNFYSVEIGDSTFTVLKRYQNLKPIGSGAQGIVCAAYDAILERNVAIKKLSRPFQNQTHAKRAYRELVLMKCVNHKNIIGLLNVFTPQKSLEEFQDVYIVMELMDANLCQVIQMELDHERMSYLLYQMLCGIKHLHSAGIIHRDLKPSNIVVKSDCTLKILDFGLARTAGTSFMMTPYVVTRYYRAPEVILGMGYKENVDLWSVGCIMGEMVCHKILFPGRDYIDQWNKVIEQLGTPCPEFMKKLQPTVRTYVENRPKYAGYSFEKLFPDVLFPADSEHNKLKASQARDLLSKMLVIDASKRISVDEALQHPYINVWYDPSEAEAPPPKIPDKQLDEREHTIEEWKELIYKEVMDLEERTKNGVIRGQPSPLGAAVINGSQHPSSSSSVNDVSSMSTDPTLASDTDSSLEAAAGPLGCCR
Put plainly: Kinase selectivity, Z'-LYTE platform. The conditions noted are these: 1 micromolar compound, read-out: percent inhibition MAPK8 (JNK1).

T2 sequence (Q96GD4 whole entry): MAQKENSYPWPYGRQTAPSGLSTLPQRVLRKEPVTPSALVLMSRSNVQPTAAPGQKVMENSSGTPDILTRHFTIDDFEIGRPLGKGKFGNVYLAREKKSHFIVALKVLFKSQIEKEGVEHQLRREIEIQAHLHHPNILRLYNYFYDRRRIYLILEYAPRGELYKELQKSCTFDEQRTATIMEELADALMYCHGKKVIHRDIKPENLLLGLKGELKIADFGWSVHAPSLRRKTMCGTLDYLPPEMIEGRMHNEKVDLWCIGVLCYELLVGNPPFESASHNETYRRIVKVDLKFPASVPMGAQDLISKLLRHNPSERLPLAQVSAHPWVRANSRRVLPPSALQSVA
T8 sequence (P51617 whole entry): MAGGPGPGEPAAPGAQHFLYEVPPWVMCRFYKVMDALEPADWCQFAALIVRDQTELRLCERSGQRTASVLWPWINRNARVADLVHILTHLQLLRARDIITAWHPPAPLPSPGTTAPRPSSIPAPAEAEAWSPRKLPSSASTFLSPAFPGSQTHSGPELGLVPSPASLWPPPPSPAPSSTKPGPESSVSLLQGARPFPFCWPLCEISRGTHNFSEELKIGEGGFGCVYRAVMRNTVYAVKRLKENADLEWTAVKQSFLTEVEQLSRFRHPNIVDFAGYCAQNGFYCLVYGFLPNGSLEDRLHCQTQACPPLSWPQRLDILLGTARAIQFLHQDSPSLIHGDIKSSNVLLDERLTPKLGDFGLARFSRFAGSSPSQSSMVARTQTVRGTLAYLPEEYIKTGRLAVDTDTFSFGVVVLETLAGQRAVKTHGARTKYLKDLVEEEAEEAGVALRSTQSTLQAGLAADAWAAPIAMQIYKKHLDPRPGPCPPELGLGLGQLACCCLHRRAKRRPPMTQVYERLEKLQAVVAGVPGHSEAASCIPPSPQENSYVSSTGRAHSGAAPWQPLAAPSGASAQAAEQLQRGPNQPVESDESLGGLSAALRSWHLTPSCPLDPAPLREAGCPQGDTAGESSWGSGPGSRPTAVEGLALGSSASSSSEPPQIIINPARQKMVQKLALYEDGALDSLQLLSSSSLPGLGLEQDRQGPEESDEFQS
T6 sequence (P49760 whole entry): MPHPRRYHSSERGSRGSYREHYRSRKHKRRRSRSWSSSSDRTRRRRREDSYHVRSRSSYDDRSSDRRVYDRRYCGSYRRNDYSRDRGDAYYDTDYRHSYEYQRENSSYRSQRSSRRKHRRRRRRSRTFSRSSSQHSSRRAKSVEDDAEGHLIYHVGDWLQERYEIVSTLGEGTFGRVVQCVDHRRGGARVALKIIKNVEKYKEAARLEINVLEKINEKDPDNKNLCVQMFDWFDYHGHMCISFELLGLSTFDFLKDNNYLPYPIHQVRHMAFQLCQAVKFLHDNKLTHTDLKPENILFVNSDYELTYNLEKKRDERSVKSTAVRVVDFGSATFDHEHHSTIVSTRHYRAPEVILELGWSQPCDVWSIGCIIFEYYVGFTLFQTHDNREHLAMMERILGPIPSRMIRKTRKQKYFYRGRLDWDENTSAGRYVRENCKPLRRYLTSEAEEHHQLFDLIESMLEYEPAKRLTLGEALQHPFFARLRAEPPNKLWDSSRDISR
T10 sequence (P28482 whole entry): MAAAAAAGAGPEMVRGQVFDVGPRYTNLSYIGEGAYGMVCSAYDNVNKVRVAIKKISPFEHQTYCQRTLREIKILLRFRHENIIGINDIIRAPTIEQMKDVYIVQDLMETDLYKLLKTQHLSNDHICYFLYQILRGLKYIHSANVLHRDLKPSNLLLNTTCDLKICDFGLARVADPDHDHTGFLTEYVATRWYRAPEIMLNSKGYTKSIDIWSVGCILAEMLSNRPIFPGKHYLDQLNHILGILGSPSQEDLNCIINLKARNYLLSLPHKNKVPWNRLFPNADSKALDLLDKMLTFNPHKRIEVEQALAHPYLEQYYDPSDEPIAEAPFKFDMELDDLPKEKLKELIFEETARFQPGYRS

Regarding `c1cc(-c2n[nH]c3ccc(OC4CC4)cc23)cc(N2CCc3oc(C4CC4)nc3C2)n1` [Example 19], in [1], the IC50 came to 54 nM.
On the same count and under the same terms, the value for `FC1(F)CN(c2cc(-c3n[nH]c4ccc(OC5CC5)cc34)ccn2)C1` [Example 25] was 40 nM; that for `O[C@H]1CCN(c2cc(-c3n[nH]c4ccc(OC5CC5)cc34)ccn2)C1` [Example 24] was 29 nM; that for `CC1(Oc2ccc3[nH]nc(-c4ccnc(N5CC[C@@H](N)C5)c4)c3c2)CC1` [Example 36] was 2 nM.
As to `FC1(F)CCN(c2cc(-c3n[nH]c4ccc(OC5CC5)cc34)ccn2)C1` [Example 21], the IC50 in [1] is 19 nM.
The same measure, in the same setting: the result for `CS(=O)(=O)N1CCCN(c2cc(-c3n[nH]c4ccc(OC5CC5)cc34)ccn2)CC1` [Example 17] reads 51 nM; that for `Fc1cc2[nH]nc(-c3ccnc(N4CCOCC4)c3)c2cc1OC1CC1` [Example 3], 1.2 nM; that for `c1cnn(C2CCN(c3cc(-c4n[nH]c5ccc(OC6CC6)cc45)ccn3)CC2)c1` [Example 13], 16 nM.
On the same count and under the same terms, the result for `CN1CCN(c2cc(-c3n[nH]c4ccc(OC5(C)CC5)cc34)ccn2)CC1=O` [Example 33] reads 1 nM.
On to `C[C@@H]1CN(c2cc(-c3n[nH]c4ccc(OC5(C)CC5)cc34)ccn2)C[C@H](C)O1` [Example 30], for which, in assay [1], the IC50 is 0.9 nM. Also, the inhibition at 1 µM stood at 6% on AURKB (Aurora B); 5% at BRAF V599E; 9% on CDK1/cyclin B; 8% on CHEK2 (CHK2); 49% on CLK2; 3% at DYRK1A. For the same compound, the inhibition at 1 µM at IRAK1 is -17%; at JAK3, 37%; at MAPK1 (ERK2) it was 10%; at MAPK8 (JNK1), 39%.
On to `CO[C@H]1CCN(c2cc(-c3n[nH]c4ccc(OC5CC5)cc34)ccn2)C1` [Example 22], for which, in assay [1], the IC50 came to 17 nM.
The compound `CC1(Oc2ccc3[nH]nc(-c4ccnc(N5CC[C@H](N)C5)c4)c3c2)CC1` [Example 37] gave an IC50 in assay [1] of 2.6 nM.
Regarding `C[C@H]1[C@H](N)[C@@H](O)CN1c1cc(-c2n[nH]c3ccc(OC4(C)CC4)cc23)ccn1` [Example 35], half-maximal inhibition in assay [1] (IC50) required 1.1 nM.
The same measure, in the same setting: the value for `c1cc(-c2n[nH]c3ccc(OC4CC4)cc23)cc(N2CCOCC2)n1` [Example 1] was 40 nM.
Same read-out and setting: the result for `c1cc(-c2n[nH]c3ccc(OC4CC4)cc23)cc(N2CCC(n3cncn3)CC2)n1` [Example 12] reads 10 nM.
On the same count and under the same terms, the result for `O=S1(=O)CC2CC(C1)N(c1cc(-c3n[nH]c4ccc(OC5CC5)cc34)ccn1)C2` (stereo not shown) [Example 11] reads 111 nM; that for `CC1(Oc2ccc3[nH]nc(-c4ccnc(N5C6CCC5COC6)c4)c3c2)CC1` [Example 5], 67 nM; that for `c1cc(-c2n[nH]c3ccc(OC4COC4)cc23)cc(N2CCOCC2)n1` [Example 2], 20 nM.
Regarding `CO[C@H]1CN(c2cc(-c3n[nH]c4ccc(OC5CC5)cc34)ccn2)C[C@@H]1O` [Example 10], the IC50 in assay [1] was 23 nM.
Compound `O=S1(=O)CCCN(c2cc(-c3n[nH]c4ccc(OC5CC5)cc34)ccn2)CC1` [Example 16] yielded an IC50 in assay [1] of 71 nM.
In turn, `CC1(Oc2ccc3[nH]nc(-c4ccnc(N5CCOCC5)c4)c3c2)CC1` [Example 27] gave an IC50 in [1] of 0.6 nM. Also, the inhibition at 1 µM came to 15% on AURKB (Aurora B); 29% on BRAF V599E; 33% at CDK1/cyclin B; 14% at CHEK2 (CHK2); 46% at CLK2; 6% at DYRK1A. Moreover, the inhibition at 1 µM is 18% at IRAK1, 56% on JAK3, 23% on MAPK1 (ERK2) and 61% on MAPK8 (JNK1).
In turn, `C[C@@H]1CN(c2cc(-c3n[nH]c4ccc(OC5(C)CC5)cc34)ccn2)CCO1` [Example 29] gave an IC50 in assay [1] of 0.6 nM. Moreover, the inhibition at 1 µM at AURKB (Aurora B) was determined as 11%; at BRAF V599E, 18%; at CDK1/cyclin B, 26%; at CHEK2 (CHK2) it was 2%; on CLK2, 53%; on DYRK1A, 4%. The inhibition at 1 µM is 8% on IRAK1, 46% at JAK3, 18% at MAPK1 (ERK2) and 54% on MAPK8 (JNK1).
For `[O-][S+]1CCCN(c2cc(-c3n[nH]c4ccc(OC5CC5)cc34)ccn2)CC1` (stereo not shown) [Example 15], the IC50 in assay [1] was determined as 44 nM.
The same measure, in the same setting: the result for `CN1CCN(c2cc(-c3n[nH]c4ccc(OC5(C)CC5)cc34)ccn2)CC1` [Example 32] reads 0.6 nM; that for `c1cc(-c2n[nH]c3ccc(OC4CC4)cc23)cc(N2CCOC3(CC3)C2)n1` [Example 6], 17 nM; that for `CC1(Oc2ccc3[nH]nc(-c4ccnc(N5CC6CCC(C5)O6)c4)c3c2)CC1` [Example 4], 23 nM.
The same measure, in the same setting: the value for `FC1(F)CCN(c2cc(-c3n[nH]c4ccc(OC5CC5)cc34)ccn2)CC1` [Example 8] was 30 nM; that for `CC1(Oc2ccc3[nH]nc(-c4ccnc(N5CCN(S(C)(=O)=O)CC5)c4)c3c2)CC1` [Example 31] was 0.6 nM.
Same read-out and setting: the result for `F[C@H]1CN(c2cc(-c3n[nH]c4ccc(OC5CC5)cc34)ccn2)C[C@@H]1F` [Example 14] reads 19 nM; that for `FC1(F)CCCN(c2cc(-c3n[nH]c4ccc(OC5CC5)cc34)ccn2)C1` [Example 20], 22 nM; that for `C[C@H]1[C@H](O)[C@@H](O)CN1c1cc(-c2n[nH]c3ccc(OC4(C)CC4)cc23)ccn1` [Example 34], 0.7 nM.
